Source: ChEMBL document CHEMBL1145199, “Design, synthesis, and SAR of a novel pyrazinone series with non-nucleoside HIV-1 reverse transcriptase inhibitory activity” (J Med Chem, 2005)
pIC50: −log10 of the molar value.

Legend:
Assay type in all cases: functional, organism-based
[1] = test system: Human immunodeficiency virus 1; experiment: Inhibitory concentration against 188L mutant was determined; conditions: for pIC50: Human immunodeficiency virus 1, read-out: IC50
[2] = test system: Human immunodeficiency virus 1; experiment: Inhibitory concentration against wild-type HIV-1 LAI Virus was determined; conditions: for pIC50: Human immunodeficiency virus 1, read-out: IC50
[3] = test system: Human immunodeficiency virus 1; experiment: Inhibitory concentration against 103N mutant was determined; conditions: for pIC50: Human immunodeficiency virus 1, read-out: IC50
[4] = test system: Human immunodeficiency virus 1; experiment: Inhibitory concentration against 181C mutant was determined; conditions: for pIC50: Human immunodeficiency virus 1, read-out: IC50
[5] = test system: Human immunodeficiency virus 1; experiment: Inhibitory concentration against 100I mutant was determined; conditions: for pIC50: Human immunodeficiency virus 1, read-out: IC50
[6] = test system: Human immunodeficiency virus 1; experiment: Inhibitory concentration against 188L mutant strain was determined
[7] = test system: Human immunodeficiency virus 1; experiment: Inhibitory concentration against 100I and 103N mutant was determined
[8] = test system: Human immunodeficiency virus 1; experiment: Inhibitory concentration against 103N and 181C mutant was determined
[9] = test system: Human immunodeficiency virus 1; experiment: Inhibitory concentration against 100I and 103N mutant strains was determined
[10] = test system: Human immunodeficiency virus 1; experiment: Inhibitory concentration against 103N and 181C mutant strains was determined

Structure (SMILES)	pIC50 [1]	pIC50 [2]	pIC50 [3]	pIC50 [4]	pIC50 [5]	also measured
Cc1cc(C)c(Sc2cn(C)c(=O)c(Nc3ccc(C#N)cc3)n2)c(C)c1	6.20	7.80	6.20	6.00	< 5.00	–
Cc1cc(C)c(S(=O)(=O)c2nc(Nc3ccc(C#N)cc3)c(=O)n(C)c2C)c(C)c1	–	8.52	6.49	7.20	7.60	pIC50 [6]: 6.80
Cc1ccccc1Oc1nc(Nc2ccc(C#N)cc2)c(=O)n(C)c1C	5.60	8.30	6.40	5.60	6.40	–
Cc1cc(C)c(Sc2cn(C)c(=O)c(Nc3ccc(Cl)cc3)n2)c(C)c1	5.00	7.10	< 5.00	5.20	< 5.00	–
Cc1ccc(Sc2cn(C)c(=O)c(Nc3ccc(C#N)cc3)n2)c(C)c1	< 5.00	8.30	< 5.00	< 5.00	< 5.00	–
Cc1cc(C)c(Oc2nc(Nc3ccc(C#N)cc3)c(=O)n(C)c2C)c(C)c1	< 6.70	8.30	< 6.80	< 6.30	< 7.30	–
Cc1ccc(Oc2cn(C)c(=O)c(Nc3ccc(F)cc3)n2)c(C)c1	–	–	–	–	–	IC50 [1]: > 10 µmol; IC50 [2]: 1.258 µmol; IC50 [3]: > 10 µmol; IC50 [4]: > 10 µmol; IC50 [5]: > 10 µmol
Cc1ccc(Oc2nc(Nc3ccc(C#N)cc3)c(=O)n(C)c2C)c(C)c1	6.80	8.52	7.49	7.20	7.60	pIC50 [7]: 6.80; pIC50 [8]: 6.00
Cc1ccc(Oc2cn(C)c(=O)c(Nc3ccc(C(F)(F)F)cc3)n2)c(C)c1	–	6.30	–	–	–	–
Cc1ccccc1Oc1cn(Cc2ccccc2)c(=O)c(Nc2ccc(C#N)cc2)n1	–	6.50	–	–	–	–
Cc1ccc(Nc2nc(Oc3ccc(C)cc3C)cn(C)c2=O)cc1	–	–	–	–	–	IC50 [2]: > 100 µmol
Cc1ccccc1Oc1cn(C)c(=O)c(Nc2ccc(C#N)cc2)n1	5.70	8.40	6.10	5.60	5.90	–
Cc1ccc(Sc2nc(Nc3ccc(Cl)cc3)c(=O)n(C)c2C)c(C)c1	–	6.30	–	–	–	–
Cc1ccc(Oc2nc(Nc3ccc(Cl)cc3)c(=O)n(C)c2C)c(C)c1	< 5.00	6.90	5.40	< 5.00	5.40	–
Cc1cc(C#N)cc(C)c1Oc1nc(Nc2ccc(C#N)cc2)c(=O)n(C)c1C	–	8.22	–	7.60	–	pIC50 [7]: 6.80; pIC50 [8]: 7.20
Cc1ccccc1Sc1nc(Nc2ccc(C#N)cc2)c(=O)n(C)c1C	< 5.00	7.40	< 5.00	< 5.00	< 5.00	–
Cc1ccc(Oc2cn(C)c(=O)c(Nc3ccc(C#N)cc3)n2)c(C)c1	6.40	> 9.00	7.49	6.80	6.50	–
Cc1ccccc1Sc1cn(C)c(=O)c(Nc2ccc(C#N)cc2)n1	< 5.00	7.70	< 5.00	< 5.00	< 5.00	–
Cc1ccc(Oc2cn(C)c(=O)c(Nc3ccccc3)n2)c(C)c1	–	–	–	–	–	IC50 [2]: 0.251 µmol
Cc1ccc(Oc2cn(C)c(=O)c(Nc3ccc(Cl)cc3)n2)c(C)c1	< 5.00	7.60	5.30	5.30	5.30	–
Cc1ccccc1Sc1nc(Nc2ccc(C#N)cc2)c(O)nc1C	6.20	7.40	6.20	5.30	5.30	–
Cc1cc(C)c(S(=O)(=O)c2cn(C)c(=O)c(Nc3ccc(C#N)cc3)n2)c(C)c1	< 5.00	8.10	< 5.00	6.40	< 5.00	–
Cc1ccccc1Oc1nc(Nc2ccc(Cl)cc2)c(=O)n(C)c1C	< 5.00	7.00	< 5.00	< 5.00	5.30	–
Cc1ccc(Oc2cn(Cc3ccccc3)c(=O)c(Nc3ccc(C#N)cc3)n2)c(C)c1	< 5.00	7.49	6.20	5.80	6.20	–
O=C1Nc2ccc(Cl)cc2[C@@](C#CC2CC2)(C(F)(F)F)O1 [EFAVIRENZ]	–	–	7.40	8.70	7.40	pIC50 [9]: < 5.00; pIC50 [10]: 7.40
